Measurements from patent US12187712B2, “Cardiac sarcomere inhibitors” (Cytokinetics, Inc., priority 2018, dated 2025).

Tests used:
[1] = test system: adult cardiac ventricular rat myocytes; test: Adult ventricular myocyte contractility (fractional shortening); assay type: cell-based, Sprague-Dawley rats; conditions: 5 min perfusion, 5 cells tested
Description: Adult male Sprague-Dawley rats were anesthetized and the hearts were quickly excised, rinsed and the ascending aorta was cannulated. Continuous retrograde perfusion was initiated on the hearts at a perfusion pressure of 60 cm H2O. Hearts were first perfused with a nominally Ca^2+-free modified Krebs solution of the following composition: 113 mM NaCl, 4.7 mM KCl, 0.6 mM KH2PO4, 0.6 mM Na2HPO4, 1.2 mM MgSO4, 12 mM NaHCO3, 10 mM KHCO3, 30 mM taurine, 5.5 mM glucose and 10 mM Hepes (all Sigma). This medium is not recirculated and is continually aerated with a 95% O2/5% CO2 mixture. After approximately 3 minutes, the heart was perfused with a modified Krebs buffer supplemented with collagenase (Worthington) and 12.5 μM final calcium concentration. The heart was removed from the cannulae after the heart appeared blanched and soft in appearance. The atria and vessels were removed, and the ventricles were gently dissected into smaller pieces with forceps. The tissue was homogenized by repeated pipette trituration, and the collagenase reaction was stopped by 10% bovine calf serum (BCS), sedimentation and resuspension in perfusion buffer containing 5% BCS and 12.5 uM CaCl2. Myocytes were made calcium tolerant by stepwise addition of a CaCl2 solution to a final concentration of 1.2 mM. Cells were then washed and resuspended in Tyrode's buffer (137 mM NaCl, 3.7 mM KCl, 0.5 mM MgCl, 11 mM glucose, 4 mM Hepes, and 1.2 mM CaCl2, pH 7.4). Cells were kept for 60 min at 37° C. prior to initiating experiments and used within 5 hrs of isolation. […] Additionally, only cells whose basal contractility was between 3 and 8% were used in subsequent experiments with compounds.
Aliquots of myocytes in Tyrode's buffer were placed in perfusion chambers (series 20 RC-27NE; Warner Instruments) complete with heating platforms. […] Contractility of the myocytes and contraction and relaxation velocities were then recorded using edge detection.
Five or more individual myocytes were tested per compound from two or more different myocyte preparations. […] These average transients were analyzed using the IonWizard software (IonOptix) to determine changes in diastolic length and fractional shortening. Fractional shortening was calculated as: ((resting length −length at peak contraction) divided by the resting length). The percent change in fractional shortening from baseline was calculated as: ((post-dose fractional shortening/basal fractional shortening)*100). The percent reduction in fractional shortening from baseline was calculated as: (100−percent change in fractional shortening from baseline). Maximum contraction and relaxation velocities (um/sec) was also determined. Results from individual cells were averaged and the SEM was calculated.

[2] = test system: rat cardiac contractility; test: Echocardiography assessment of acute pharmacodynamic effect in rat cardiac contractility (continuous IV infusion); assay type: in vivo, Sprague Dawley rats; conditions: estimated plasma concentration for 20% relative reduction in cardiac fractional shortening, loading + maintenance IV dose 0.5 + 1.5 mg/kg, isoflurane anesthesia
Description: Echocardiography assessment of acute pharmacodynamic effect in rat cardiac contractility.
Assessment of in vivo cardiac function by echocardiography was performed in male Sprague Dawley rats under isoflurane (1-3%) anesthesia. 2-D M-mode images of the left ventricle were acquired in the parasternal long-axis view before and during administration of compounds by continuous IV infusion. In vivo fractional shortening was determined by M-mode image analysis with the following calculation: ((End diastolic diameter−end systolic diameter)/end diastolic diameter×100). For continuous IV infusion experiments, three pre-dose baseline M-mode images were taken at 1 minute intervals prior to infusion of compound. Compounds were formulated in 50% Propylene Glycol (PG): 16% Cavitron: 10% dimethylacetamide (DMA) and delivered via a jugular vein catheter at the rate of 1 mL/kg/h. An estimated loading and maintenance IV infusion dose was administered to establish a steady state plasma concentration that produced a sustained, 20% relative reduction in cardiac fractional shortening for 60 minutes. During infusion, M-mode images were taken at 5 minute intervals for 60 minutes. Blood samples were taken to determine the plasma concentration of the compounds. Data were reported as an estimated IC20 value, which is the concentration at which fractional shortening is […]. […]

[3] = target: T1, bovine cardiac myofibrils (Bos taurus, UniProt Q9BE39); test: Skinned myofibril ATPase assay (PK/LDH-coupled), CDMF75; assay type: biochemical; conditions: inhibition of steady-state ATPase activity of bovine cardiac myofibrils at 75% Ca2+ activation (pCa75)
T1 construct: full-length cardiac myosin in the context of the native sarcomere, skinned myofibril assays were performed; from tissue; host or cells: bovine cardiac left ventricular tissue, detergent-skinned (Triton X-100) myofibrils
Description: To evaluate the effect of compounds on the ATPase activity of full-length cardiac myosin in the context of the native sarcomere, skinned myofibril assays were performed. Bovine cardiac myofibrils were obtained by homogenizing bovine cardiac left ventricular tissue in the presence of a detergent such as triton X-100. Such treatment removes membranes and a majority of the soluble cytoplasmic proteins but leaves intact the cardiac sarcomeric acto-myosin apparatus. Myofibril preparations retain the ability to hydrolyze ATP in an Ca^2+ regulated manner. ATPase activities of such myofibril preparations in the presence and absence of compounds were assayed at Ca^2+ concentrations activating to a defined fraction of the maximal rate (i.e., 25%, 75%). Small molecule agents were assessed for their ability to inhibit the steady-state ATPase activity of bovine cardiac myofibrils using pyruvate kinase and lactate dehydrogenase (PK/LDH)-coupled enzyme system. This assay regenerates myosin-produced ADP into ATP by oxidizing NADH, producing an absorbance change at 340 nm. Prior to testing small molecule agents, the bovine cardiac myofibrils were assessed for their calcium responsiveness and the calcium concentration that achieves either a 50% (pCa50) or 75% (pCa75) activation of the myofibril system was chosen as the final condition for assessing the inhibitory activity of the small molecule agents. All enzymatic activity was measured in a buffered solution containing 12 mM PIPES (piperazine-N,N′-bis(2-ethanesulfonic acid), 2 mM magnesium chloride at pH 6.8 (PM 12 buffer). Final assay conditions were 1 mg/mL of bovine cardiac myofibrils, 4 U/mL pyruvate kinase, 6 U/mL lactate dehydrogenase, 50 μM ATP, 0.1 mg/mL BSA (bovine serum albumin), 10 ppm antifoam, 1 mM DTT, 0.5 mM NADH, 1.5 mM PEP, 0.6 mM EGTA, and an amount of CaCl2 sufficient to achieve either 50% or 75% activation of the myofibril ATPase activity. Results for compounds tested are provided in Table A. Compounds tested were prepared in accordance with the synthetic procedures described herein.

T1 sequence (Q9BE39 whole entry): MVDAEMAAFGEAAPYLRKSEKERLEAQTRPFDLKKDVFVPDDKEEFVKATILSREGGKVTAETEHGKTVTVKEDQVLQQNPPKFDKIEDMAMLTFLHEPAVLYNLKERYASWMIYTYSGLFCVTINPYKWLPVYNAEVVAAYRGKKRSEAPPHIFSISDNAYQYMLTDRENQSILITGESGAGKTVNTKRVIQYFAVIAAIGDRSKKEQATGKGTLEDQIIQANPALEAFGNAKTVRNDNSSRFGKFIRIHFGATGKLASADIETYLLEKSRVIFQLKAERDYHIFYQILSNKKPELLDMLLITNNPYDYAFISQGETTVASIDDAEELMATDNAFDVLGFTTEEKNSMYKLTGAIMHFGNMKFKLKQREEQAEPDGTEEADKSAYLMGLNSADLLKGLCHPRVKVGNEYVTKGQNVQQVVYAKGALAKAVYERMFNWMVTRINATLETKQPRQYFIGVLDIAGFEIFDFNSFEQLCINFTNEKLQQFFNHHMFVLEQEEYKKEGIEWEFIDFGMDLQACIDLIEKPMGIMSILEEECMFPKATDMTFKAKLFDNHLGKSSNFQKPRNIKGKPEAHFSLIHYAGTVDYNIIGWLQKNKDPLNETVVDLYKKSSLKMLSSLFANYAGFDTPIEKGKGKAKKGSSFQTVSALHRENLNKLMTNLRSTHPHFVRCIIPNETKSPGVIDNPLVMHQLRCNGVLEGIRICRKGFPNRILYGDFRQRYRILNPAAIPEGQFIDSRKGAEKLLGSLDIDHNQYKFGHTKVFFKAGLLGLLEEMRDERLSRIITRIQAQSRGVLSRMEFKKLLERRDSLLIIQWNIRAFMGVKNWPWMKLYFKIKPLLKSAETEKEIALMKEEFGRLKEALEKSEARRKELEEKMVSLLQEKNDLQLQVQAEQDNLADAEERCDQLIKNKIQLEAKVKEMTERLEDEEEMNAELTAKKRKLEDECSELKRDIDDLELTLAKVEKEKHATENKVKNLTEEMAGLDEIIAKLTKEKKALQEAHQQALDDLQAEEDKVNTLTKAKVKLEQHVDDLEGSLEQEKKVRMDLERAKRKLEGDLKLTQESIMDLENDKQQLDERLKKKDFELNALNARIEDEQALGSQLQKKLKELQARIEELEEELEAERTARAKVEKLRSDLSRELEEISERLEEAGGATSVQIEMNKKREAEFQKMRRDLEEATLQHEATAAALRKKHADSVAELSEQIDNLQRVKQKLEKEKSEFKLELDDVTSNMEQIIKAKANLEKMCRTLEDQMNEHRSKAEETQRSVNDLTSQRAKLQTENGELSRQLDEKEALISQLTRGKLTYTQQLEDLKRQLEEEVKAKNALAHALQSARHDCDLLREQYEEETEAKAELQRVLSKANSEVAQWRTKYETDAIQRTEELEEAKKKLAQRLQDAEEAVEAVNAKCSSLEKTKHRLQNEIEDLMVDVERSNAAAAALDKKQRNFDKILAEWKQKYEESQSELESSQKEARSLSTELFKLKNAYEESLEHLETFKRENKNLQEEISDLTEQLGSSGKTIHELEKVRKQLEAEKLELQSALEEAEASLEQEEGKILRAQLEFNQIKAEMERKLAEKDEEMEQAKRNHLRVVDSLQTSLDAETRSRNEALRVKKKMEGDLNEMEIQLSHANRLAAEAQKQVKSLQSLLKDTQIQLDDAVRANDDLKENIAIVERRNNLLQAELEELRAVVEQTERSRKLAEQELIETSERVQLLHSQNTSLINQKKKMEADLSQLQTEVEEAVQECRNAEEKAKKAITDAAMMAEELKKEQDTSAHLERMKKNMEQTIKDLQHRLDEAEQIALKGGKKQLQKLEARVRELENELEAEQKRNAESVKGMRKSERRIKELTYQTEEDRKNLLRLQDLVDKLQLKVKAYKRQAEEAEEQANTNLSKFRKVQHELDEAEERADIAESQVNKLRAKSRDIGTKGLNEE
T1 sequence (P85100 whole entry partner): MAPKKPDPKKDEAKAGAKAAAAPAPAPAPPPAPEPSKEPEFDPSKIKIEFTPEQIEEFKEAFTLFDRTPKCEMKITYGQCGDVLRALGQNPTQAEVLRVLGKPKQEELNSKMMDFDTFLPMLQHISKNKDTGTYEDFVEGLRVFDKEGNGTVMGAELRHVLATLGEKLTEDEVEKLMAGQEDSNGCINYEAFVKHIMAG
T1 sequence (Q3SZE5 whole entry partner): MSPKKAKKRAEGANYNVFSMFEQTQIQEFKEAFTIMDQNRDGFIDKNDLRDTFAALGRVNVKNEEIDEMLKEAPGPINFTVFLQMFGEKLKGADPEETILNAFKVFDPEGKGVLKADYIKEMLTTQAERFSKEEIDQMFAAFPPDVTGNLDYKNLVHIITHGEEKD

CDMF75 IC15 [3] [µM] | IC50 [3] [µM] | SMILES | % FS (% reduction from baseline) ± SEM ([1]; concentration 5 μM) [%] | IC20 at 1.5 mg/kg [2] [µM] | % FS (% reduction from baseline) ± SEM ([1]; concentration 10 μM) [%] | % FS (% reduction from baseline) ± SEM ([1]; concentration 1 μM) [%]
0.6 | 2.6 | Cc1nc(-c2ccc([C@@H](C)Nc3cnccn3)cc2)no1 [Compound 28, (R)-N-(1-(4-(5-methyl-1,2,4-oxadiazol-3-yl)phenyl)ethyl)pyrazin-2-amine] | 43.6 ± 9.3 | 0.8 |  | 
1.2 | 4.3 | Cc1nc(-c2ccc(CNc3cc(C(N)=O)ccn3)cc2)no1 [Compound 19, 2-((4-(5-methyl-1,2,4-oxadiazol-3-yl)benzyl)amino) isonicotinamide] |  |  | 14.4 ± 3.4 | 
0.5 | 2.3 | C[C@@H](Nc1cnccn1)c1ccc(-c2noc(C(F)(F)F)n2)cc1 [Compound 34, (R)-N-(1-(4-(5-(trifluoromethyl)-1,2,4-oxadiazol-3-yl)phenyl)ethyl)pyrazin-2-amine] | 30.7 ± 5.0 |  |  | 
0.2 | 1 | Cc1cc(-c2ccc(CNc3cnccn3)cc2)no1 [Compound 52, N-(4-(5-methylisoxazol-3-yl)benzyl)pyrazin-2-amine] |  |  |  | 17.4 ± 6.8
